SMILES strings stand for the structures.

Experimental findings from patent US20260070887A1 (Shenzhen Zhongge Biological Technology Co., Ltd., priority 2022, published 2026) are described below.

Experiment [1] has as its system HCC1395 cells. In words: HCC1395 cell proliferation (Cell Titer-Glo, 6 days). To be noted: KIF18A-insensitive tumor cells. Type of experiment: cell-based. On the procedure:
(§1) The inhibitory effect on the KIF18A target by the compounds of the present disclosure was evaluated by testing the inhibitory effect on proliferation of HCC1954 and HCC1395 cells by the compounds of the present disclosure.
(§2) HCC1954 (ATCC, CRL-2388) and HCC1395 (ATCC, CRL-2324) cells were cultured separately in RPMI-1640 complete medium (Gibco, A1049101) containing 20% fetal bovine serum (Gibco, 10099141C), 100 U penicillin, and 100 μg/mL streptomycin (Gibco, 15140-122). The Promega kit Cell Titer-Glo (Promega: G7572) was used in this method for test. • 1. HCC1954 (KIF18A-sensitive tumor cells) and HCC1395 (KIF18A-insensitive tumor cells) were cultured separately in T75 cell culture flasks (Corning, 430641), and the medium was placed in a 37° C., 5% CO2 incubator. • 2. When the cell density reached 70% to 80% (about 2 to 3 times per week), cells are passaged with trypsin (0.25% EDTA). • 3. The cell culture flask was taken out and the cells were separated by adding 2 mL of trypsin (0.25% EDTA source) for 5 minutes. • 4. Digestion was stopped by adding 8 mL of RPM1-1640 medium and the cell suspension was transferred to a centrifuge tube and centrifuged at 1000 rpm for 5 minutes. • 5. The cells were resuspended with 5 mL of RPMI-1640 medium. Cell density was adjusted to 5×10^3/mL (HCC1954), and 2.5×10^4/mL (HCC1395), respectively. • 6. 40 μL of cell solution was added to the 384-well plate (Corning, 3765). • 7. The 384-well plate was centrifuged at 1000 rpm for 1 minute. • 8. The cells were cultured overnight in a 37° C., 5% CO2 incubator. • 9. The next day, 40 nL of compound solution was added to the 384-well plate using Echo650. The plate was then placed in a 37° C., 5% CO2 incubator for 6 days. • 10. After 6 days, 20 μL of Cell-Titer-Glo (Promega, G7572) reagent was added per well. • 11. Luminescence values were measured using the EnVision Xcite Multilabel Reader (PerkinElmer, 2105-0020).
(§3) The percentage of inhibition of cell proliferation by the test compound at each concentration was calculated by comparing with the values of the control group (0.1% DMSO). The IC50 values of the compounds were obtained by concentration-inhibition rate nonlinear regression analysis of the test compounds using GraphPad Prism 9.

Experiment [2] relates to HCC1954 cells. As to the kind of experiment: HCC1954 cell proliferation (Cell Titer-Glo, 6 days). Type of experiment: cell-based. To be noted: KIF18A-sensitive tumor cells. On the procedure:
as §1, §2, §3

As for `Nc1cc(NS(=O)(=O)CCO)cc(N2CCC3(CC2)CC3)c1C(=O)Nc1cccc(N2CCC(F)(F)CC2)c1` [Example 1, 2-amino-N-(3-(4,4-difluoropiperidin-1-yl)phenyl)-4-((2-hydroxyethyl)sulfonamide)-6-(6-azaspiro[2.5]octan-6-yl)benzamide], the concentration for half-maximal inhibition (IC50) was greater than 5000 nM in experiment [1] and no more than 10 nM in experiment [2].
In the case of `CNc1cc(NS(=O)(=O)CCO)cc(N2CCC3(CC2)CC3)c1C(=O)Nc1cc(C)nc(N2CCC(F)(F)CC2)n1` [Example 4, N-(2-(4,4-difluoropiperidin-1-yl)-6-methylpyrimidin-4-yl)-4-(2-hydroxyethylsulfonamide)-2-methylamino-6-(6-azaspiro[2.5]octan-6-yl)benzamide], the results for the IC50 in experiment [1] and in experiment [2] were greater than 5000 nM and no more than 10 nM, respectively.
Take `O=C(Nc1cccc2c1cc1n2CCOC1)c1ccc(NS(=O)(=O)CCO)cc1N1CCC2(CC1)CC2` [Example 235, N-(3,4-dihydro-1H-[1, 4]oxazino[4,3-a]indol-9-yl)-4-(2-hydroxyethylsulfonamido)-2-(6-azaspiro[2.5]octan-6-yl)benzamide]: the IC50 in experiment [1] (Homo sapiens, HCC1395, 144 h) is greater than 5000 nM; in experiment [2] (Homo sapiens, HCC1954, 144 h) it was no more than 10 nM.
With `O=C(Nc1cccc2c1cc1n2CCOC1)c1ccc(NS(=O)(=O)CCO)cc1N1CCC(=C(F)F)CC1` [Example 319, 2-(4-difluoromethylene)piperidin-1-yl-N-(3,4-dihydro-1H-[1,4]oxazino[4,3-a]indol-9-yl)-4-((2-hydroxyethyl)sulfonamide) benzamide], the values for the IC50 in experiment [1] and in experiment [2] were greater than 5000 nM and 10 to 500 nM, respectively.
